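Dose response: 5 concentrations. Exposure: 48 h. Format: 96-well plates. Endpoint: linear interpolation; highest concentration if not reached. GI50 marks 50% less growth. At the TGI there is no net growth.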
Tests used:
Experiment in all cases: inhibition of tumour cell growth, NCI panel, 48 h
[1] = system: HCC-2998 colon
[2] = system: CAKI-1 renal
[3] = system: RPMI-8226 leukemia
[4] = system: CCRF-CEM leukemia
[5] = system: OVCAR-4 ovarian
[6] = system: IGROV1 ovarian
[7] = system: ACHN renal
[8] = system: HL-60(TB) leukemia
[9] = system: SNB-19 CNS
[10] = system: SN12C renal
[11] = system: NCI/ADR-RES ovarian
[12] = system: A549 NSCLC
[13] = system: KM12 colon
[14] = system: MCF7 breast
[15] = system: 786-0 renal
[16] = system: SK-OV-3 ovarian
[17] = system: MDA-MB-468 breast
[18] = system: HS 578T breast
[19] = system: SF-539 CNS
[20] = system: MDA-MB-231 breast
[21] = system: A498 renal
[22] = system: TK-10 renal
[23] = system: SF-295 CNS
[24] = system: SR leukemia
[25] = system: MDA-MB-435
[26] = system: LOX IMVI melanoma
[27] = system: HCT-15 colon
[28] = system: NCI-H226 lung
[29] = system: EKVX NSCLC
[30] = system: SK-MEL-5 melanoma
[31] = system: K-562 leukemia
[32] = system: MOLT-4 leukemia
[33] = system: PC-3 prostate
[34] = system: HT29 colon
[35] = system: SNB-75 CNS
[36] = system: NCI-H522 lung
[37] = system: COLO 205 colon
[38] = system: BT-549 breast
[39] = system: NCI-H23 lung
[40] = system: SW-620 colon
[41] = system: SK-MEL-28 melanoma
[42] = system: NCI-H460 lung
[43] = system: RXF 393 renal
[44] = system: U251 CNS
[45] = system: DU-145 prostate
[46] = system: OVCAR-3 ovarian
[47] = system: OVCAR-8 ovarian
[48] = system: OVCAR-5 ovarian
[49] = system: UO-31 renal
[50] = system: SF-268 CNS
[51] = system: HOP-92 NSCLC
[52] = system: UACC-62 melanoma
[53] = system: M14 melanoma
[54] = system: MALME-3M melanoma
[55] = system: HOP-62 NSCLC
[56] = system: T-47D breast
[57] = system: UACC-257 melanoma
[58] = system: SK-MEL-2 melanoma

Structure (SMILES): COc1ccc(-c2nc3ccccc3n2CC(=O)N=Nc2c(O)[nH]c3ccc(OC)cc23)cc1
- GI50 [1]: 6.54 µM
- TGI [1]: 19 µM
- GI50 [2]: 2770 nM
- TGI [2]: 8.75 µM
- GI50 [3]: 13.2 µM
- TGI [3]: > 100 µM
- GI50 [4]: 27.5 µM
- TGI [4]: > 100 µM
- GI50 [5]: 11.6 µM
- TGI [5]: 30 µM
- GI50 [6]: 12.3 µM
- TGI [6]: 25.4 µM
- GI50 [7]: 2390 nM
- TGI [7]: 6.62 µM
- GI50 [8]: 2830 nM
- TGI [8]: 13.5 µM
- GI50 [9]: 15.3 µM
- TGI [9]: 29.5 µM
- GI50 [10]: 6.02 µM
- TGI [10]: 19.3 µM
- GI50 [11]: 2020 nM
- TGI [11]: 5.18 µM
- GI50 [12]: 4.51 µM
- TGI [12]: 17.5 µM
- GI50 [13]: 15.2 µM
- TGI [13]: 33.8 µM
- GI50 [14]: 2010 nM
- TGI [14]: 4.72 µM
- GI50 [15]: 1770 nM
- TGI [15]: 4.26 µM
- GI50 [16]: 15.6 µM
- TGI [16]: 30.8 µM
- GI50 [17]: 2 µM
- TGI [17]: 5.17 µM
- GI50 [18]: 6.39 µM
- TGI [18]: 32.3 µM
- GI50 [19]: 2950 nM
- TGI [19]: 9.35 µM
- GI50 [20]: 5.76 µM
- TGI [20]: 19.2 µM
- GI50 [21]: 15.4 µM
- TGI [21]: 29.6 µM
- GI50 [22]: 10.9 µM
- TGI [22]: 23.1 µM
- GI50 [23]: 14.3 µM
- TGI [23]: 34.7 µM
- GI50 [24]: 2520 nM
- TGI [24]: 25.7 µM
- GI50 [25]: 4.09 µM
- TGI [25]: 15.1 µM
- GI50 [26]: 2020 nM
- TGI [26]: 4.76 µM
- GI50 [27]: 3.01 µM
- TGI [27]: 11.7 µM
- GI50 [28]: 1800 nM
- TGI [28]: 3.99 µM
- GI50 [29]: 11.2 µM
- TGI [29]: 28.2 µM
- GI50 [30]: 5.37 µM
- TGI [30]: 18.3 µM
- GI50 [31]: 4.1 µM
- TGI [31]: 95.8 µM
- GI50 [32]: 5.71 µM
- TGI [32]: 36.5 µM
- GI50 [33]: 12.1 µM
- TGI [33]: 42.3 µM
- GI50 [34]: 2170 nM
- TGI [34]: 4.9 µM
- GI50 [35]: 7.41 µM
- TGI [35]: 22.1 µM
- GI50 [36]: 6.18 µM
- TGI [36]: 22.9 µM
- GI50 [37]: 16.1 µM
- TGI [37]: 33.9 µM
- GI50 [38]: 2520 nM
- TGI [38]: 6.47 µM
- GI50 [39]: 10.4 µM
- TGI [39]: 23.5 µM
- GI50 [40]: 4.46 µM
- TGI [40]: 19.7 µM
- GI50 [41]: 4.4 µM
- TGI [41]: 19.9 µM
- GI50 [42]: 4.22 µM
- TGI [42]: 15.4 µM
- GI50 [43]: 1870 nM
- TGI [43]: 3.59 µM
- GI50 [44]: 12.5 µM
- TGI [44]: 25.3 µM
- GI50 [45]: 4.53 µM
- TGI [45]: 15.5 µM
- GI50 [46]: 12.5 µM
- TGI [46]: 26.6 µM
- GI50 [47]: 2300 nM
- TGI [47]: 5.85 µM
- GI50 [48]: 13.8 µM
- TGI [48]: 33.6 µM
- GI50 [49]: 11.2 µM
- TGI [49]: 23.2 µM
- GI50 [50]: 13.3 µM
- TGI [50]: 31.6 µM
- GI50 [51]: 8.19 µM
- TGI [51]: 26.4 µM
- GI50 [52]: 11.2 µM
- TGI [52]: 23.3 µM
- GI50 [53]: 3.15 µM
- TGI [53]: 11 µM
- GI50 [54]: 3.28 µM
- TGI [54]: 12.7 µM
- GI50 [55]: 17.5 µM
- TGI [55]: 35.1 µM
- GI50 [56]: 3.46 µM
- TGI [56]: 16.3 µM
- GI50 [57]: 2560 nM
- TGI [57]: 7.16 µM
- GI50 [58]: 17.6 µM
- TGI [58]: 33.6 µM

Structure (SMILES): CSc1nc2ccc(C)cc2cc1/C=C1/C=C(c2ccccc2)NC1=O
- GI50 [17]: 5.77 µM
- TGI [17]: 61.3 µM

Structure (SMILES): COc1cc2c(=O)n(CC3CCCCC3)c3c4cc[nH]c4ncc3c2cc1OC
- GI50 [17]: 4.61 µM
- TGI [17]: 25.6 µM

Structure (SMILES): Cc1nc2sc(C(=O)Nc3ccccc3)c(N)c2cc1C(=O)c1ccccc1
- GI50 [17]: 2.59 µM
- TGI [17]: 28.9 µM
